ChEMBL document CHEMBL4421717, “Antagonists and agonists of bitter taste receptors and uses thereof” (2012)
The source made the active and inactive calls. The calls are words filed in the database; no cut-off is given here.

What was measured:
Format in all cases: functional, cell-based
[1] = target: T1, Taste receptor type 2 member 14 (Homo sapiens) (UniProt Q9NYV8); test: Agonist activity at recombinant human N-terminal rat ST3 receptor-fused TAS2R14 expressed in HEK293T cells co-expressing Galpha16gust44 assessed as effect on intracellular calcium level at 100 uM by FLIPR assay
T1 sequence (whole entry): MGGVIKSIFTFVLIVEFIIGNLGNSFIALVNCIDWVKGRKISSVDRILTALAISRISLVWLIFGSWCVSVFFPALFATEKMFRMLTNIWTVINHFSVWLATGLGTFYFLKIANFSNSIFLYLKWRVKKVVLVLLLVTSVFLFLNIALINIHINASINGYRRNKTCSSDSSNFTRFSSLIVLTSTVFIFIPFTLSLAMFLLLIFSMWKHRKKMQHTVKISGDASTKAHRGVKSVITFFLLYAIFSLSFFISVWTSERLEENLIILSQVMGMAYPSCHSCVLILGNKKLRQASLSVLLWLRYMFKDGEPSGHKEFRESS

[2] = target: T2, Taste receptor type 2 member 38 (Homo sapiens) (UniProt P59533); test: Agonist activity at recombinant human N-terminal rat ST3 receptor-fused TAS2R38 expressed in HEK293T cells co-expressing Galpha16gust44 assessed as effect on intracellular calcium level at 100 uM by FLIPR assay
T2 sequence (whole entry): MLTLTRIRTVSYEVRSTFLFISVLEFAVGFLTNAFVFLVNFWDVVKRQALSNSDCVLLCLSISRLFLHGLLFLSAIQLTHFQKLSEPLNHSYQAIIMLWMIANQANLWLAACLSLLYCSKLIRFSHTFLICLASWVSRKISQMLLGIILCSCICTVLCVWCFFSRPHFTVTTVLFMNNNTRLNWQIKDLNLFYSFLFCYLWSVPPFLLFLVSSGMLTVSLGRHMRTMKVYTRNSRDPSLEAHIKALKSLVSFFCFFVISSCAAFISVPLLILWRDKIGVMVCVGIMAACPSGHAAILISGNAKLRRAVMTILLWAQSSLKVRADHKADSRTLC

[3] = target: T3, Taste receptor type 2 member 8 (Homo sapiens) (UniProt Q9NYW2); test: Activity at recombinant human N-terminal rat ST3 receptor-fused TAS2R8 expressed in HEK293T cells co-expressing Galpha16gust44 assessed as effect on chloramphenicol-induced intracellular calcium level at 100 uM by FLIPR assay
T3 sequence (whole entry): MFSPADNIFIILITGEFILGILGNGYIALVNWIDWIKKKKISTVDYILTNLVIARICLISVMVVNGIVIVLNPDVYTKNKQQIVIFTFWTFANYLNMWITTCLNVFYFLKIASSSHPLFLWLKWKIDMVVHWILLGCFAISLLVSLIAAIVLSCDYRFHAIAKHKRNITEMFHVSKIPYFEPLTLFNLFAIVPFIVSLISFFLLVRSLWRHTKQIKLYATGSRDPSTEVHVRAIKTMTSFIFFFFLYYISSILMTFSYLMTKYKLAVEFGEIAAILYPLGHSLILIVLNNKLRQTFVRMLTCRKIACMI

[4] = target: T4, Taste receptor type 2 member 9 (Homo sapiens) (UniProt Q9NYW1); test: Activity at recombinant human N-terminal rat ST3 receptor-fused TAS2R9 expressed in HEK293T cells co-expressing Galpha16gust44 assessed as effect on ofloxacin-induced intracellular calcium level at 100 uM by FLIPR assay
T4 sequence (whole entry): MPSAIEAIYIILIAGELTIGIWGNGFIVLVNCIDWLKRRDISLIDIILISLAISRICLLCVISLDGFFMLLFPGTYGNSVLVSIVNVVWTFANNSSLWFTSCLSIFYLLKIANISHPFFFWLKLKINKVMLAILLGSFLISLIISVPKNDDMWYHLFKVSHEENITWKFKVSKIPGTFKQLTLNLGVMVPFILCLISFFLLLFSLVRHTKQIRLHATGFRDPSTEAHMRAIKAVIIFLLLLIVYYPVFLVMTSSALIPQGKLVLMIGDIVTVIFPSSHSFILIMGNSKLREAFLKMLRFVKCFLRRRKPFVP

[5] = target: T5, Taste receptor type 2 member 20 (Homo sapiens) (UniProt P59543); test: Activity at recombinant human N-terminal rat ST3 receptor-fused TAS2R49 expressed in HEK293T cells co-expressing Galpha16gust44 assessed as effect on cromolyn-induced intracellular calcium level at 100 uM by FLIPR assay
T5 sequence (whole entry): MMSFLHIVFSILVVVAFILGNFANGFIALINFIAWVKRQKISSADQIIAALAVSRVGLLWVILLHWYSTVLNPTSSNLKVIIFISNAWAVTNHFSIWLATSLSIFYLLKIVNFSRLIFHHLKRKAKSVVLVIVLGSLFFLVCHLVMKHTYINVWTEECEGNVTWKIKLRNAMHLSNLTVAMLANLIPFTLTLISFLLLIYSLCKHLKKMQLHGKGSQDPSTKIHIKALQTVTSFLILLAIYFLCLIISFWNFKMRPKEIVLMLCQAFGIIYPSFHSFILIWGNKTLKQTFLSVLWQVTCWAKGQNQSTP

[6] = target: T6, Taste receptor type 2 member 50 (Homo sapiens) (UniProt P59544); test: Activity at recombinant human N-terminal rat ST3 receptor-fused TAS2R50 expressed in HEK293T cells co-expressing Galpha16gust44 assessed as effect on andrographolide-induced intracellular calcium level at 100 uM by FLIPR assay
T6 sequence (whole entry): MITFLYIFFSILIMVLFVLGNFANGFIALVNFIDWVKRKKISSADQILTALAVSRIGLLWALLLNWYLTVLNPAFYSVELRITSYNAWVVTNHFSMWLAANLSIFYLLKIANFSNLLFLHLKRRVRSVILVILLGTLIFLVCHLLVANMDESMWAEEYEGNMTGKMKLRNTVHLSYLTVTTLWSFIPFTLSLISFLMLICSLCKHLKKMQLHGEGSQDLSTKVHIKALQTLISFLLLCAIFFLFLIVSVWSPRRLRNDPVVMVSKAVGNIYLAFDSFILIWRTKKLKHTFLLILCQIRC

[7] = target: Taste receptor type 2 member 40 (Homo sapiens) (UniProt P59535); test: Antagonist activity at recombinant human N-terminal rat ST3 receptor-fused TAS2R40 expressed in HEK293T cells co-expressing Galpha16gust44 assessed as inhibition of cohumulone-induced intracellular calcium level at 100 uM by FLIPR assay
[8] = target: Taste receptor type 2 member 31 (Homo sapiens) (UniProt P59538); test: Antagonist activity at recombinant human N-terminal rat ST3 receptor-fused TAS2R44 expressed in HEK293T cells co-expressing Galpha16gust44 assessed as inhibition of aristolochic acids-induced intracellular calcium level at 100 uM by FLIPR assay
Taste receptor type 2 member 31 (Homo sapiens), sequence (P59538 whole entry, the tested form may be a part): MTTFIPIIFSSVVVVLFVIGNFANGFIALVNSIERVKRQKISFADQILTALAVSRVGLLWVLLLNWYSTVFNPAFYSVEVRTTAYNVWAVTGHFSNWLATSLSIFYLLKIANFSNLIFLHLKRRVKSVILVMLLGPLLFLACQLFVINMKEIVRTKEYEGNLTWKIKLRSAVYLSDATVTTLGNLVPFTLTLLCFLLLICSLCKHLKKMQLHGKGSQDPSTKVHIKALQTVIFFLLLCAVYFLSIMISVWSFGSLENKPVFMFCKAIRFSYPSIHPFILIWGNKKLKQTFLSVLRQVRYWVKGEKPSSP

Taste receptor type 2 member 40 (Homo sapiens), sequence (P59535 whole entry, the tested form may be a part): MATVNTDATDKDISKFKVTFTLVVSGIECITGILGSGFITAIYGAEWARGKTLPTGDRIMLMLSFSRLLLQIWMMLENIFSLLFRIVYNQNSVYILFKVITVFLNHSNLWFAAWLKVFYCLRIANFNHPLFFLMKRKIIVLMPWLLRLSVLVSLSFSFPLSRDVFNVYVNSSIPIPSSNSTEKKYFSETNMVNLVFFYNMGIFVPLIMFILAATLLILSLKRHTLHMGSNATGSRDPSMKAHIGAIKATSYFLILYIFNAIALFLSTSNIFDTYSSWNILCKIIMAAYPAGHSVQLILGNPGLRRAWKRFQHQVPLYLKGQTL

SMILES	Activity [1]	Activity [2]	Activity [3]	Activity [4]	Activity [5]	Activity [6]	inhibition [7]	inhibition [8]
C/C1=C\C[C@H](O)/C(C)=C/[C@H]2OC(=O)[C@@H](C)C2CC1 (some centres undefined)	Active	inactive	inactive	inactive	inactive	inactive	Active	–
C/C1=C\C[C@H](O)[C@@H](C)C[C@H]2OC(=O)[C@@H](C)C2CC1 (some centres undefined)	Active	–	inactive	inactive	inactive	inactive	Active	Active
